# Results published in patent US20240158446A1, “CYCLIC COMPOUND HAVING SELECTIVE INHIBITORY ACTION ON KRAS OVER HRAS AND NRAS” (CHUGAI SEIYAKU KABUSHIKI KAISHA, priority 2021, published 2024).
# Where a SMILES comes first, the peptide text is derived from it. Bridges are numbered along the chain shown (N, C = ends). [ ]: non-standard residue; d: D form. The star is where a group is joined. hPhe(3,5-F2-4-CF3) = N[C@@H](CCc1cc(F)c(C(F)(F)F)c(F)c1)C(=O)O; NPrPhe(4-CF3) = CCCN[C@@H](Cc1ccc(C(F)(F)F)cc1)C(=O)O; NMeGly(cPent) = CN[C@H](C(=O)O)C1CCCC1; αMeF = C[C@](N)(Cc1ccccc1)C(=O)O; NMeD = CN[C@@H](CC(=O)O)C(=O)O; Ac4c(3-oxa) = NC1(C(=O)O)COC1; NMeL = CN[C@@H](CC(C)C)C(=O)O; αMeS = C[C@](N)(CO)C(=O)O; Sar = CNCC(=O)O; tBu = CC(C)(C)*; Allyl = C=CC*
# Assays:
# [1] = biological target: GDP-bound NRAS wild-type protein (Homo sapiens, UniProt P01111); assay: Binding to NRAS by surface plasmon resonance (SPR), Single Cycle Kinetics; details: SPR, GDP-bound NRAS wild-type protein vs GDP-bound KRAS wild-type protein
# GDP-bound NRAS wild-type protein, sequence (P01111 whole entry): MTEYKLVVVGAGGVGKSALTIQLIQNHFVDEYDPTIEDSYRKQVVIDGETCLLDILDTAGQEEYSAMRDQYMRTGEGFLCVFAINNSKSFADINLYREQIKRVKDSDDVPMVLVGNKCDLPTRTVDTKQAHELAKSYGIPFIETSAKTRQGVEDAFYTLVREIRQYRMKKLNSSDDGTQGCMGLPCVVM
# [2] = biological target: GDP-bound KRAS wild-type protein (Homo sapiens, UniProt P01116); assay: Binding to KRAS by surface plasmon resonance (SPR), Single Cycle Kinetics; details: SPR Single Cycle Kinetics, GDP-bound KRAS wild-type protein, 1:1 binding model; read-out: KRAS KD
# GDP-bound KRAS wild-type protein, sequence (P01116 whole entry): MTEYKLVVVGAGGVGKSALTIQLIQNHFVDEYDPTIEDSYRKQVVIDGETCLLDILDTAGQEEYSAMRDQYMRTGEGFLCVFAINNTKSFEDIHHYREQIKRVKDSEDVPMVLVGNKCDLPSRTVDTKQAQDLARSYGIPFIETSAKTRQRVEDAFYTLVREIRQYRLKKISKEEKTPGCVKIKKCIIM
# [3] = biological target: GDP-bound HRAS wild-type protein (Homo sapiens, UniProt P01112); assay: Binding to HRAS by surface plasmon resonance (SPR), Single Cycle Kinetics; details: SPR, GDP-bound HRAS wild-type protein vs GDP-bound KRAS wild-type protein
# GDP-bound HRAS wild-type protein, sequence (P01112 whole entry): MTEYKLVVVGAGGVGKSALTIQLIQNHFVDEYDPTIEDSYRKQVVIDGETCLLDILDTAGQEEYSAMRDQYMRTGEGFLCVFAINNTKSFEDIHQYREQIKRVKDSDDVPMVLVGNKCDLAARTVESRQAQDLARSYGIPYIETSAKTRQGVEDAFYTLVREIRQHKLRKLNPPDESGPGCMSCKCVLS
Structure (SMILES),NRAS/KRAS (ratio of KD value with respect to NRAS to KD value with respect to KRAS) [1],Kd [2] [nM],HRAS/KRAS (ratio of KD value with respect to HRAS to KD value with respect to KRAS) [3]
"CCCN1C(=O)CN(C)C(=O)CN(C)C(=O)[C@H]([C@@H](C)CC)NC(=O)[C@H](CC(C)C)N(C)C(=O)C[C@@H](C(=O)N(C)C)N(C)C(=O)[C@H](C2CCCC2)N(C)C(=O)[C@](C)(Cc2ccccc2)NC(=O)[C@@H]2CCCN2C(=O)[C@H](CCc2cc(F)c(C(F)(F)F)c(F)c2)NC(=O)CN(C)C(=O)[C@@H]1Cc1ccc(C(F)(F)F)cc1 [PP0740] ([NMeL]I[Sar][Sar][NPrPhe(4-CF3)][Sar][hPhe(3,5-F2-4-CF3)]P[αMeF][NMeGly(cPent)][NMeD]-NMe2; lactam N-11)",B (a compound having 3 or more and less than 10 is denoted as B),0.47,C (A compound having a KD ratio of 0.1 or more and less than 3 is denoted as C)
"CCCN1C(=O)CN(C)C(=O)CN(C)C(=O)[C@H]([C@@H](C)CC)NC(=O)[C@H](CC(C)C)N(C)C(=O)C[C@@H](C(=O)N(C)C)N(C)C(=O)[C@H](C2CCCC2)N(C)C(=O)[C@](C)(COC)NC(=O)[C@@H]2CCCN2C(=O)[C@H](CCc2cc(F)c(C(F)(F)F)c(F)c2)NC(=O)CN(C)C(=O)[C@@H]1Cc1ccc(C(F)(F)F)cc1 [PP0741] ([NMeL]I[Sar][Sar][NPrPhe(4-CF3)][Sar][hPhe(3,5-F2-4-CF3)]P[αMeS](Me)[NMeGly(cPent)][NMeD]-NMe2; lactam N-11)",B (a compound having 3 or more and less than 10 is denoted as B),0.28,B (a compound having 3 or more and less than 10 is denoted as B)
"C=CCOC[C@]1(C)NC(=O)[C@@H]2CCCN2C(=O)[C@H](CCc2cc(F)c(C(F)(F)F)c(F)c2)NC(=O)CN(C)C(=O)[C@H](Cc2ccc(C(F)(F)F)cc2)N(CCC)C(=O)CN(C)C(=O)CN(C)C(=O)[C@H]([C@@H](C)CC)NC(=O)[C@H](CC(C)C)N(C)C(=O)C[C@@H](C(=O)N(C)C)N(C)C(=O)[C@H](C2CCCC2)N(C)C1=O [PP0742] ([NMeL]I[Sar][Sar][NPrPhe(4-CF3)][Sar][hPhe(3,5-F2-4-CF3)]P[αMeS](Allyl)[NMeGly(cPent)][NMeD]-NMe2; lactam N-11)",B (a compound having 3 or more and less than 10 is denoted as B),0.51,B (a compound having 3 or more and less than 10 is denoted as B)
"CCCN1C(=O)CN(C)C(=O)CN(C)C(=O)[C@H]([C@@H](C)CC)NC(=O)[C@H](CC(C)C)N(C)C(=O)C[C@@H](C(=O)N(C)C)N(C)C(=O)[C@H](C2CCCC2)N(C)C(=O)[C@](C)(COC(C)(C)C)NC(=O)[C@@H]2CCCN2C(=O)[C@H](CCc2cc(F)c(C(F)(F)F)c(F)c2)NC(=O)CN(C)C(=O)[C@@H]1Cc1ccc(C(F)(F)F)cc1 [PP0743] ([NMeL]I[Sar][Sar][NPrPhe(4-CF3)][Sar][hPhe(3,5-F2-4-CF3)]P[αMeS](tBu)[NMeGly(cPent)][NMeD]-NMe2; lactam N-11)",B (a compound having 3 or more and less than 10 is denoted as B),0.68,C (A compound having a KD ratio of 0.1 or more and less than 3 is denoted as C)
"CCCN1C(=O)CN(C)C(=O)CN(C)C(=O)[C@H]([C@@H](C)CC)NC(=O)[C@H](CC(C)C)N(C)C(=O)C[C@@H](C(=O)N(C)C)N(C)C(=O)[C@H](C2CCCC2)N(C)C(=O)C2(COC2)NC(=O)[C@@H]2CCCN2C(=O)[C@H](CCc2cc(F)c(C(F)(F)F)c(F)c2)NC(=O)CN(C)C(=O)[C@@H]1Cc1ccc(C(F)(F)F)cc1 [PP0744] ([NMeL]I[Sar][Sar][NPrPhe(4-CF3)][Sar][hPhe(3,5-F2-4-CF3)]P[Ac4c(3-oxa)][NMeGly(cPent)][NMeD]-NMe2; lactam N-11)",B (a compound having 3 or more and less than 10 is denoted as B),0.06,B (a compound having 3 or more and less than 10 is denoted as B)
